Columns and labels:
[1] = Study to determine the boiling point of (3R)-hydroxybutyl (3R)-hydroxybutyrate, with colour change on boiling; type: physicochemical
Description: A study to determine the boiling point of (3R)-hydroxybutyl (3R)-hydroxybutyrate was performed.

[2] = Miscibility with water; type: physicochemical
Excerpt: In one specific embodiment, the compound of interest is (R)-3-hydroxybutyl (R)-3-hydroxybutanoate.

C[C@@H](O)CCOC(=O)C[C@@H](C)O [(3R)-hydroxybutyl (3R)-hydroxybutyrate, (R)-3-hydroxybutyl (R)-3-hydroxybutanoate]
Measured Boiling Point ([1]; Pressure 7 mbar): 155-159 °C
Measured Boiling Point ([1]; Pressure 15 mbar): 165-169 °C
Measured Boiling Point ([1]; Pressure 30 mbar): 174-179 °C
Measured Boiling Point ([1]; Pressure 60 mbar): 186-191 °C
Measured Boiling Point ([1]; Pressure 80 mbar): 197-204 °C
Measured Boiling Point ([1]; Pressure 120 mbar): 208-212 °C
Measured Boiling Point ([1]; Pressure 240 mbar): 215-219 °C
Measured Boiling Point ([1]; Pressure 500 mbar): 224-229 °C
Measured Boiling Point ([1]; Pressure 1000 mbar): 274-280 °C
Color Change ([1]; boiling at 7 mbar): no color change after 2 h of boiling
Color Change ([1]; boiling at 15 mbar): no color change after 2 h of boiling
Color Change ([1]; boiling at 30 mbar): no color change after 2 h of boiling
Color Change ([1]; boiling at 60 mbar): no color change after 2 h of boiling
Color Change ([1]; boiling at 80 mbar): no color change after 2 h of boiling
Color Change ([1]; boiling at 120 mbar): no color change after 1 h of boiling, very slight yellow tint is present after 1 h and 30 min of boiling
Color Change ([1]; boiling at 240 mbar): no color change after 1 h of boiling, very slight yellow tint is present after 1 h and 30 min of boiling
Color Change ([1]; boiling at 500 mbar): no color change after 1 h of boiling, very slight yellow tint is present after 1 h and 30 min of boiling
Color Change ([1]; boiling at 1000 mbar): slight yellow tint is present after 1 hour of boiling
miscibility with water ([2]; 50/50 (w/w) mixture of water/(R)-3-hydroxybutyl (R)-3-hydroxybutanoate): completely miscible with water
miscibility with water ([2]; 60/40 (w/w) mixture of water/(R)-3-hydroxybutyl (R)-3-hydroxybutanoate): completely miscible with water
